Each structure is given as a SMILES string.

Common to all, as to format: ADME, organism-based
The nature of data set [1]: Volume of distribution in Sprague-Dawley rat at 2.5 mg/kg, iv and 10 mg/kg, po. The following applies: in vivo, read-out: Vdss.
Data set [2] in a line: AUC in Sprague-Dawley rat at 10 mg/kg, po. Details: dose 10 mg/kg, route oral. The following applies: plasma.
The nature of data set [3]: Oral bioavailability in Sprague-Dawley rat at 2.5 mg/kg, iv and 10 mg/kg, po. The following applies: in vivo.
Data set [4] can be described thus: Ratio of drug level in Sprague-Dawley rat brain against plasma at 2.5 mg/kg, iv and 10 mg/kg, po after 1 hr. The following applies: read-out: BPR.
The nature of data set [5]: Ratio of drug level in Sprague-Dawley rat brain against plasma at 2.5 mg/kg, iv and 10 mg/kg, po after 4 hrs. The following applies: read-out: BPR.

`CN(C)[C@@H]1CCN(c2ccc(-c3coc4cc(-c5ccc(Cl)cc5)ccc4c3=O)cn2)C1.Cl`: the Vd in data set [1] was 58 L/kg. Further, the AUC (as a rule, concentration integrated over time) in data set [2] is 859 ng·h/mL. In addition, in data set [3], the bioavailability (as a rule, dose-corrected exposure relative to a reference, in per cent) worked out at 66%. Moreover, the Kp at 1 h in data set [4] was 9.5. Besides, the Kp at 4 h in data set [5] came out at 25.

These data come from ChEMBL document CHEMBL1146192, “Substituted chromones and quinolones as potent melanin-concentrating hormone receptor 1 antagonists” (Bioorg Med Chem Lett, 2006).
